Laboratory results reported in patent US10508077B2 (FORMA Therapeutics, Inc., priority 2015, dated 2019).

Target: T1, Full length human recombinant HDAC8 protein (Homo sapiens, UniProt Q9BY41)
T1 construct: Full length human recombinant HDAC8 protein was expressed in baculoviral system; made in house
T1 sequence (Q9BY41 1-377): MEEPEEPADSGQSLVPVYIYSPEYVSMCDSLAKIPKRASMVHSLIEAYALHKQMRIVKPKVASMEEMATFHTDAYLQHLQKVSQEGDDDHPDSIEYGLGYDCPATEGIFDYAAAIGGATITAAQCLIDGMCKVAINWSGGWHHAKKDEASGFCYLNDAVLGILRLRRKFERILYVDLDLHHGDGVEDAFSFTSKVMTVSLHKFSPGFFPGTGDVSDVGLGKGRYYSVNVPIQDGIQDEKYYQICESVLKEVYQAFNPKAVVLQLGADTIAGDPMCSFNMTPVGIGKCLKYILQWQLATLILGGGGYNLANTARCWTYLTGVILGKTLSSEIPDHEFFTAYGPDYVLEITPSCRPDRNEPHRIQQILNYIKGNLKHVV
Assay: In vitro histone deacetylase assay: enzymatic HDAC8 assay, electrophoretic mobility shift
Type: biochemical
Conditions: substrate RHKK(Ac)-NH2, 1 nM enzyme, compounds listed under IC50 range headings
Protocol: The enzymatic HDAC8 assay was performed using electrophoretic mobility shift assay. Full length human recombinant HDAC8 protein was expressed in baculoviral system and purified by affinity chromatography. The enzymatic reactions were assembled in 384 well plates in a total volume of 25 μL in a reaction buffer composing: 100 mM HEPES, pH7.5, 25 mM KC, 0.1% bovine serum albumin, 0.01% Triton X-100, 1% DMSO (from compounds) 2 μM of the fluorescently labeled peptide substrate and enzyme. The enzyme was added at a final concentration of 1 nM. The peptide substrate RHKK(Ac)-NH2 was used. The compounds were tested at 12 concentrations spaced by 3× dilution intervals. Negative control samples (0%-inhibition in the absence of inhibitor) and positive control samples (100%-inhibition) were assembled in replicates of four in each assay plate. The reactions were incubated at 25° C. and quenched by the addition of 45 μL of termination buffer (100 mM HEPES, pH 7.5, 0.01% Triton X-100, 0.05% SDS).
The terminated assay plates were analyzed on LabChip® 3000 microfluidic electrophoresis instrument (Perkin Elmer/Caliper Life Sciences). The fluorescence intensity of the electrophoretically separated de-acetylated product and substrate peptide was measured. Activity in each sample was determined as the product to sum ratio (PSR): P/(S+P), where P is the peak height of the product peptide and S is the peak height of the substrate peptide. Percent inhibition (Pinh) is determined using the following equation: Pinh=(PSR0%−PSRinh)/(PSR0%−PSR100%)*100, where PSRinh is the product sum ratio in the presence of inhibitor, PSR0% is the average product sum ration in the absence of inhibitor and PSR 100% is the average product sum ratio in 100%-inhibition control samples. The IC50 values of inhibitors were determined by fitting the %-inhibition curves with 4 parameter dose-response model using XLfit 4 software. Ranges of IC50 values for compounds of the invention are disclosed in Table 26.

IC50 [µM]	SMILES
< 1	CCS(=O)(=O)NC1CCN(c2ccccc2/C=C/C(=O)NO)CC1 [Example I-227, (E)-3-(2-(4-(ethylsulfonamido)piperidin-1-yl)phenyl)-N-hydroxyacrylamide]
1 to 10	O=C(/C=C/c1ccccc1C(=O)NCc1ccc(-c2ccccc2)cc1)NO [II-7, (E)-N-([1,1′-biphenyl]-4-ylmethyl)-2-(3-(hydroxyamino)-3-oxoprop-1-en-1-yl)benzamide]
1 to 10	O=C(/C=C/c1ccccc1C(=O)NCC1CCCCC1)NO [II-4, (E)-N-(cyclohexylmethyl)-2-(3-(hydroxyamino)-3-oxoprop-1-en-1-yl)benzamide]
1 to 10	Cc1oc(-c2ccc(Cl)cc2)cc1C(=O)NC1CCN(c2ccccc2/C=C/C(=O)NO)CC1 [Example I-15]
1 to 10	O=C(/C=C/c1ccccc1N1CCN(S(=O)(=O)c2ccccc2OC(F)(F)F)CC1)NO [Example I-29, (E)-N-hydroxy-3-(2-(4-((2-(trifluoromethoxy)phenyl)sulfonyl)piperazin-1-yl)phenyl)acrylamide]
< 1	CCCc1nc(-c2ccccc2)sc1C(=O)Nc1ccccc1/C=C/C(=O)NO [Example I-276, (E)-N-(2-(3-(hydroxyamino)-3-oxoprop-1-en-1-yl)phenyl)-2-phenyl-4-propylthiazole-5-carboxamide]
< 1	O=C(/C=C/c1ccccc1N1Cc2cc(Cl)c(Cl)cc2C1)NO [Example I-290, (E)-3-(2-(5,6-dichloroisoindolin-2-yl)phenyl)-N-hydroxyacrylamide]
< 1	O=C(/C=C/c1ccccc1N1CCC(NS(=O)(=O)c2ccc(C(F)(F)F)cc2)CC1)NO [Example I-224, (E)-N-hydroxy-3-(2-(4-((4-(trifluoromethyl)phenyl)-sulfonamido)piperidin-1-yl)phenyl)acrylamide]
< 1	O=C(/C=C/c1ccccc1NCc1ccc(-c2ccccn2)cc1)NO [Example I-92, (E)-N-hydroxy-3-(2-((4-(pyridin-2-yl)benzyl)amino)phenyl)acrylamide]
< 1	O=C(/C=C/c1ccccc1N1CCC(NS(=O)(=O)c2ccc(Cl)cc2)CC1)NO [Example I-223, (E)-3-(2-(4-((4-chlorophenyl)sulfonamido)piperidin-1-yl)phenyl)-N-hydroxyacrylamide]
< 1	O=C(/C=C/c1ccccc1C(=O)N1CCN(CCc2ccccc2)CC1)NO [II-21, (E)-N-hydroxy-3-(2-(4-phenethylpiperazine-1-carbonyl)phenyl)acrylamide]
1 to 10	O=C(/C=C/c1ccccc1N1CCN(C(=O)c2cc3ccccn3n2)CC1)NO [Example I-22, (E)-N-hydroxy-3-(2-(4-(pyrazolo[1,5-a]pyridine-2-carbonyl)piperazin-1-yl)phenyl)acrylamide]
< 1	COc1ccc(S(=O)(=O)N2CCN(c3ccccc3/C=C/C(=O)NO)CC2)cc1OC [Example I-256, (E)-3-(2-(4-((3,4-dimethoxyphenyl)sulfonyl)piperazin-1-yl)phenyl)-N-hydroxyacrylamide]
< 1	O=C(/C=C/c1ccccc1N1CCC(NS(=O)(=O)c2ccc(CNC(=O)c3ccccc3)s2)CC1)NO [Example I-240, (E)-N-((5-(N-(1-(2-(3-(hydroxyamino)-3-oxoprop-1-en-1-yl)phenyl)piperidin-4-yl)sulfamoyl)thiophen-2-yl)methyl)benzamide]
< 1	Cc1ccccc1S(=O)(=O)N1CCN(c2ccccc2/C=C/C(=O)NO)CC1 [Example I-247, (E)-N-hydroxy-3-(2-(4-(o-tolylsulfonyl)piperazin-1-yl)phenyl)acrylamide]
< 1	Cn1ccc(S(=O)(=O)N2CCN(c3ccccc3/C=C/C(=O)NO)CC2)n1 [Example I-244, (E)-N-hydroxy-3-(2-(4-((1-methyl-1H-pyrazol-3-yl)sulfonyl)piperazin-1-yl)phenyl)acrylamide]
< 1	O=C(/C=C/c1ccccc1N1CCC(NC(=O)C2CCC(F)(F)CC2)CC1)NO [Example I-142, (E)-4,4-difluoro-N-(1-(2-(3-(hydroxyamino)-3-oxoprop-1-en-1-yl)phenyl)piperidin-4-yl)cyclohexane-1-carboxamide]
< 1	Cc1ccccc1C(C(=O)Nc1ccccc1/C=C/C(=O)NO)C(C)C (centres unmarked) [Example I-278, (E)-N-(2-(3-(hydroxyamino)-3-oxoprop-1-en-1-yl)phenyl)-3-methyl-2-(o-tolyl)butanamide]

IC50 [µM]	SMILES
< 1	Cc1nc(CC(=O)N2CCN(c3ccccc3/C=C/C(=O)NO)CC2)c(C)s1 [Example I-211]
1 to 10	O=C(/C=C/c1ccccc1C(=O)N1CCC2(CC1)OCc1ccccc12)NO [II-9, (E)-3-(2-(3H-spiro[isobenzofuran-1,4′-piperidine]-1′-carbonyl)phenyl)-N-hydroxyacrylamide]
< 1	O=C(/C=C/c1ccccc1NC(=O)c1ccnc(N2CCOCC2)c1)NO [Example I-305, (E)-N-(2-(3-(hydroxyamino)-3-oxoprop-1-en-1-yl)phenyl)-2-morpholinoisonicotinamide]
< 1	CC(C)c1ccc(CNc2ccccc2/C=C/C(=O)NO)nc1 [Example I-87, (E)-N-hydroxy-3-(2-(((5-isopropylpyridin-2-yl)methyl)amino)phenyl)acrylamide]
1 to 10	COCC1(N(C)C(=O)c2ccccc2/C=C/C(=O)NO)CC1 [II-11, (E)-2-(3-(hydroxyamino)-3-oxoprop-1-en-1-yl)-N-(1-(methoxymethyl)cyclopropyl)-N-methylbenzamide]
< 1	Cc1nnc(C)n1C1CCN(C(=O)c2ccccc2/C=C/C(=O)NO)CC1 [II-26, (E)-3-(2-(4-(3,5-dimethyl-4H-1,2,4-triazol-4-yl)piperidine-1-carbonyl)phenyl)-N-hydroxyacrylamide]
< 1	CC(C)N(C(=O)c1cccc(C(F)(F)F)c1)c1ccccc1/C=C/C(=O)NO [Example I-118, (E)-N-(2-(3-(hydroxyamino)-3-oxoprop-1-en-1-yl)phenyl)-N-isopropyl-3-(trifluoromethyl)benzamide]
1 to 10	O=C(/C=C/c1ccccc1NCc1nc2ccc(C(F)(F)F)cc2[nH]1)NO [Example I-4, (E)-N-hydroxy-3-(2-(((6-(trifluoromethyl)-1H-benzo[d]imidazol-2-yl)methyl)amino)phenyl)acrylamide]
< 1	COc1cc(CC(=O)N2CCN(c3ccccc3/C=C/C(=O)NO)CC2)ccc1O [Example I-203, (E)-N-hydroxy-3-(2-(4-(2-(4-hydroxy-3-methoxyphenyl)acetyl)piperazin-1-yl)phenyl)acrylamide]
< 1	O=C(/C=C/c1ccccc1NCc1ccnc2ccccc12)NO [Example I-88, (E)-N-hydroxy-3-(2-((quinolin-4-ylmethyl)amino)phenyl)acrylamide]
< 1	O=C(/C=C/c1ccccc1N1CCN(C(=O)Cc2cccnc2)CC1)NO [Example I-295, (E)-N-hydroxy-3-(2-(4-(2-(pyridin-3-yl)acetyl)piperazin-1-yl)phenyl)acrylamide]
1 to 10	O=C(/C=C/c1ccccc1C(=O)Nc1ccccc1)NO [II-2, (E)-2-(3-(hydroxyamino)-3-oxoprop-1-en-1-yl)-N-phenylbenzamide]
< 1	O=C(/C=C/c1ccccc1N1CCC(NC(=O)Cc2cccs2)CC1)NO [Example I-128, (E)-N-hydroxy-3-(2-(4-(2-(thiophen-2-yl)acetamido)piperidin-1-yl)phenyl)acrylamide]
1 to 10	O=C(/C=C/c1ccccc1N1CCN(C(=O)C2CCC(F)(F)CC2)CC1)NO [Example I-23]
< 1	O=C(/C=C/c1ccccc1C(=O)N1CCS(=O)(=O)CC1)NO [II-24, (E)-3-(2-(1,1-dioxidothiomorpholine-4-carbonyl)phenyl)-N-hydroxyacrylamide]
< 1	CN(CC(=O)NC1CCN(c2ccccc2/C=C/C(=O)NO)CC1)S(C)(=O)=O [Example I-144, (E)-N-hydroxy-3-(2-(4-(2-(N-methylmethylsulfonamido)acetamido)piperidin-1-yl)phenyl)acrylamide]
< 1	O=C(/C=C/c1ccccc1N1Cc2ccccc2C1=O)NO [Example I-308, (E)-N-hydroxy-3-(2-(1-oxoisoindolin-2-yl)phenyl)acrylamide]
